Data taken from US20070049564A1 (Wyeth, priority 2005, published 2007).
Converted amounts (≈) assume the structure as drawn. Like-named read-outs stand apart in the source and are kept apart here.

Columns and labels:
Streptococcus spp. = assay: In vitro activity (MIC), strain groups; design: MIC: unit not given beside the values
Staph. aureus Smith = assay: In vitro activity (MIC) against Staph. aureus Smith; type: cell-based; details: Staphylococcus aureus
[1] = system: E. coli, tet (M,S,O) Tet (M); assay: In vitro activity (MIC), strain groups; details: Human Serum
Description: (§1) Antimicrobial susceptibility testing. The in vitro activities of the antibiotics are determined by the broth microdilution method as recommended by the National Committee for Clinical Laboratory Standards (NCCLS) (1). Mueller-Hinton II broth (MHBII)(BBL Cockeysville, Md.) is the medium employed in the testing procedures. Microtiter plates containing serial dilutions of each antimicrobial agent are inoculated with each organism to yield the appropriate density (10^5 CFU/ml) in a 100 μl final volume. The plates are incubated for 18-22 hours at 35° C. in ambient air.
(§2) Presented in Tables I-XIII are representative compounds of Formula I which were evaluated against a panel of 40 selected gram-positive and gram-negative bacteria strains by pre-incubation in water, mouse serum or human serum. Representative compounds were first incubated in mouse serum for an hour prior to the in vitro testing against a panel of selected gram-positive and gram-negative bacteria strains. All compounds were also pre-incubated in water for an hour prior to testing as control. Representative compounds of Formula I were incubated in human serum prior to MIC determination.

[2] = system: E. coli, tet(A-D), efflux; assay: In vitro activity (MIC), strain groups
Description: as §1
Representative compounds were first incubated in mouse serum for an hour prior to the in vitro testing against a panel of selected gram-positive and gram-negative bacteria strains. All compounds were also pre-incubated in water for an hour prior to testing as control. Representative compounds of Formula I were incubated in human serum prior to MIC determination.

E. coli #311 = assay: In vivo activity (oral, iv; ED50) against E. coli in mice; details: Escherichia coli
Description: . […] Smith and E. Coli #311 in mammals.
Results of the tests (MIC, oral and IV) are list in Table 7.

Enterococcus spp. = assay: In vitro activity (MIC), strain groups; design: MIC: unit not given beside the values
Salmonella spp. GC 235 = assay: MIC, broth microdilution; details: Salmonella, SPP.GC235, Salmonella spp. GC 235
Description: as §1
Representative compounds were first incubated in mouse serum for an hour prior to the in vitro testing against a panel of selected gram-positive and gram-negative bacteria strains. All compounds were also pre-incubated in water for an hour prior to testing as control.

S. cholerasius GC 1355 = assay: MIC, broth microdilution; details: S. cholerasius GC 1355
Description: as §1, §2

Salmonella spp. GC 566 = assay: MIC, broth microdilution; details: Salmonella, SPP.GC566, Salmonella spp. GC 566
[3] = Pharmacokinetics in monkey, IV 2 mg/kg and oral 10 mg/kg; type: in vivo; details: Oral - MONKEY 10 mg/kg
E. coli = assay: In vitro activity (MIC) against E. coli (Table 7); type: cell-based; details: Escherichia coli
[4] = single intravenous dose (SIV), read-out: ED50 E. coli #311 SIV
[5] = single oral dose (SOD), read-out: ED50 E. coli #311 SOD
[6] = single intravenous dose, mice, Table 7, read-out: ED50 SIV (E. coli)
[7] = single oral dose, mice, Table 7, read-out: ED50 SOD (E. coli)

Q: Which MIC (Streptococcus spp.; Human Serum) does the source give for `CCCN(CC(=O)Nc1cc(N(C)C)c2c(c1O)C(=O)C1=C(O)[C@]3(O)C(=O)C(C(N)=O)=C(O)[C@@H](N(C)C)[C@@H]3C[C@@H]1C2)C(=O)OCOC(=O)c1ccsc1` [Example 27, ({[(2-{[(5aR,6aS,7S,10aS)-9-(aminocarbonyl)-4,7-bis(dimethylamino)-1,8,10a,11-tetrahydroxy-10,12-dioxo-5,5a,6,6a,7,10,10a,12-octahydrotetracen-2-yl]amino}-2-oxoethyl)(propyl)amino]carbonyl}oxy)methyl thiophene-3-carboxylate] here?
A: Its MIC is 0.12-2.

Q: And the MIC (Streptococcus spp.; Mouse Serum)?
A: Its MIC is <0.06-0.12.

Q: And the MIC (Streptococcus spp.; water)?
A: Its MIC is <0.06-0.12.

Q: What about the MIC (Staph. aureus Smith; Table 8) of the same molecule?
A: Its MIC is 0.12 µg/mL (≈ 0.159 µM).

Q: And the MIC [1]?
A: The MIC was 4-8.

Q: What about the MIC ([2]; Human Serum) of the same molecule?
A: Its MIC is 4-16.

Q: What about the MIC ([2]; Mouse Serum) of the same molecule?
A: Its MIC is 0.5-1.

Q: What about the ED50 (E. coli #311; [4]) of the same molecule?
A: Its ED50 is greater than 2 mg/kg.

Q: What about the ED50 (E. coli #311; [5]) of the same molecule?
A: Its ED50 is greater than 32 mg/kg.

Q: What about the MIC (Enterococcus spp.; Human Serum) of the same molecule?
A: Its MIC is 0.5-2.

Q: And the MIC (Enterococcus spp.; Mouse Serum)?
A: The MIC was 0.12-1.

Q: And the MIC (Enterococcus spp.; water)?
A: Its MIC is 0.12-1.

Q: For `CCCCN(CC(=O)Nc1cc(N(C)C)c2c(c1O)C(=O)C1=C(O)[C@]3(O)C(=O)C(C(N)=O)=C(O)[C@@H](N(C)C)C3CC1C2)C(=O)OCOC(=O)C(C)C` (stereo partly drawn) [Example 1, ({[(2-{[(7S,10aS)-9-(aminocarbonyl)-4,7-bis(dimethylamino)-1,8,10a,11-tetrahydroxy-10,12-dioxo-5,5a,6,6a,7,10,10a,12-octahydrotetracen-2-yl]amino}-2-oxoethyl)(butyl)amino]carbonyl}oxy)methyl 2-methylpropanoate], which MIC (Salmonella spp. GC 235; Mouse Serum pre-incubation) is on record?
A: Its MIC is 1 µg/mL (≈ 1.37 µM).

Q: And the MIC (Salmonella spp. GC 235; Water pre-incubation)?
A: Its MIC is 64 µg/mL (≈ 87.7 µM).

Q: And the MIC (Staph. aureus Smith; Table 8)?
A: Its MIC is 4 µg/mL (≈ 5.48 µM).

Q: What about the MIC (S. cholerasius GC 1355; Mouse Serum pre-incubation) of the same molecule?
A: Its MIC is 8 µg/mL (≈ 11 µM).

Q: What about the MIC (S. cholerasius GC 1355; Water pre-incubation) of the same molecule?
A: Its MIC is greater than 64 µg/mL.

Q: What about the MIC (Salmonella spp. GC 566; Mouse Serum pre-incubation) of the same molecule?
A: The MIC was 2 µg/mL (≈ 2.74 µM).

Q: And the MIC (Salmonella spp. GC 566; Water pre-incubation)?
A: Its MIC is 64 µg/mL (≈ 87.7 µM).

Q: What about the Cmax [3] of the same molecule?
A: Its Cmax is “no levels detected”.

Q: For `CCCN(CC(=O)Nc1cc(N(C)C)c2c(c1O)C(=O)C1=C(O)[C@]3(O)C(=O)C(C(N)=O)=C(O)[C@@H](N(C)C)[C@@H]3C[C@@H]1C2)C(=O)OCOC(=O)c1ccc(C)cc1` [Example 5, ({[(2-{[(5aR,6aS,7S,10aS)-9-(aminocarbonyl)-4,7-bis(dimethylamino)-1,8,10a,11-tetrahydroxy-10,12-dioxo-5,5a,6,6a,7,10,10a,12-octahydrotetracen-2-yl]amino}-2-oxoethyl)(propyl)amino]carbonyl}oxy)methyl 4-methylbenzoate], which MIC (Salmonella spp. GC 235; Mouse Serum pre-incubation) is on record?
A: Its MIC is 2 µg/mL (≈ 2.62 µM).

Q: And the MIC (Salmonella spp. GC 235; Water pre-incubation)?
A: Its MIC is 32 µg/mL (≈ 41.9 µM).

Q: And the MIC (Staph. aureus Smith; Table 8)?
A: The MIC was 1 µg/mL (≈ 1.31 µM).

Q: What about the MIC (S. cholerasius GC 1355; Mouse Serum pre-incubation) of the same molecule?
A: The MIC was 16 µg/mL (≈ 20.9 µM).

Q: What about the MIC (S. cholerasius GC 1355; Water pre-incubation) of the same molecule?
A: The MIC was greater than 64 µg/mL.

Q: What about the MIC (E. coli) of the same molecule?
A: The MIC was greater than 64 µg/mL.

Q: And the MIC (Salmonella spp. GC 566; Mouse Serum pre-incubation)?
A: The MIC was 4 µg/mL (≈ 5.24 µM).

Q: What about the MIC (Salmonella spp. GC 566; Water pre-incubation) of the same molecule?
A: The MIC was 64 µg/mL (≈ 83.8 µM).

Q: What about the ED50 (E. coli #311; [6]) of the same molecule?
A: The ED50 was 3.17 mg/kg.

Q: And the ED50 (E. coli #311; [7])?
A: Its ED50 is greater than 64 mg/kg.

Q: With `CN(C)c1cc(NC(=O)CN(C(=O)OCOC(=O)c2ccc(F)cc2)C(C)(C)C)c(O)c2c1C[C@H]1C[C@H]3[C@H](N(C)C)C(O)=C(C(N)=O)C(=O)[C@@]3(O)C(O)=C1C2=O` [Example 52, ({[(2-{[(5aR,6aS,7S,10aS)-9-(aminocarbonyl)-4,7-bis(dimethylamino)-1,8,10a,11-tetrahydroxy-10,12-dioxo-5,5a,6,6a,7,10,10a,12-octahydrotetracen-2-yl]amino}-2-oxoethyl)(tert-butyl)amino]carbonyl}oxy)methyl 4-fluorobenzoate] as the molecule, how does the MIC (Staph. aureus Smith; Table 6) read?
A: The MIC was 2 µg/mL (≈ 2.56 µM).

Q: And the MIC (E. coli)?
A: Its MIC is 8 µg/mL (≈ 10.2 µM).

Q: What about the ED50 (E. coli #311; [4]) of the same molecule?
A: The ED50 was 3.78 mg/kg.

Q: What about the ED50 (E. coli #311; [6]) of the same molecule?
A: The ED50 was 3.78 mg/kg.

Q: What about the ED50 (E. coli #311; [5]) of the same molecule?
A: Its ED50 is 43.7 mg/kg.

Q: What about the ED50 (E. coli #311; [7]) of the same molecule?
A: Its ED50 is 43.7 mg/kg.
